# Reference: ChEMBL document CHEMBL4390673, “Identification of Novel Coumestan Derivatives as Polyketide Synthase 13 Inhibitors against Mycobacterium tuberculosis. Part II” (J Med Chem, 2019)
# Experiments:
# [1] = tested on: Polyketide synthase Pks13 (Mycobacterium tuberculosis (strain ATCC 25618 / H37Rv)), I6X8D2 [D1644G,N1640K]; assay: Inhibition of Pks13 D1644G/N1640K double mutant thioesterase domain in Mycobacterium tuberculosis H37Rv assessed as reduction in bacterial growth by microplate alamar blue assay
# [2] = tested on: Polyketide synthase Pks13 (Mycobacterium tuberculosis (strain ATCC 25618 / H37Rv)), I6X8D2 [D1644G,N1640K]; assay: Inhibition of Pks13 D1644G/N1640K double mutant thioesterase domain in multidrug-resistant Mycobacterium tuberculosis KZN494 assessed as reduction in bacterial growth by microplate alamar blue assay
# [3] = tested on: Polyketide synthase Pks13 (Mycobacterium tuberculosis (strain ATCC 25618 / H37Rv)), I6X8D2 [D1644G,N1640K]; assay: Inhibition of Pks13 D1644G/N1640K double mutant thioesterase domain in extensively drug-resistant Mycobacterium tuberculosis R506 assessed as reduction in bacterial growth by microplate alamar blue assay
# [4] = tested on: Polyketide synthase Pks13 (Mycobacterium tuberculosis (strain ATCC 25618 / H37Rv)), I6X8D2 [D1644G,N1640K]; assay: Inhibition of Pks13 D1644G/N1640K double mutant thioesterase domain in drug-susceptible Mycobacterium tuberculosis V4207 assessed as reduction in bacterial growth by microplate alamar blue assay
# [5] = tested on: Polyketide synthase Pks13 (Mycobacterium tuberculosis (strain ATCC 25618 / H37Rv)), I6X8D2 [D1644G,N1640K]; assay: Inhibition of Pks13 D1644G/N1640K double mutant thioesterase domain in multidrug-resistant Mycobacterium tuberculosis V2475 assessed as reduction in bacterial growth by microplate alamar blue assay
# [6] = tested on: Polyketide synthase Pks13 (Mycobacterium tuberculosis (strain ATCC 25618 / H37Rv)), I6X8D2 [D1644G,N1640K]; assay: Inhibition of Pks13 D1644G/N1640K double mutant thioesterase domain in extensively drug-resistant Mycobacterium tuberculosis TF274 assessed as reduction in bacterial growth by microplate alamar blue assay
Structure (SMILES),MIC=<90 [1],other results
O=c1oc2ccccc2c2oc3ccc(O)c(CN4CCCCC4)c3c12,0.125 to 0.25 µg/mL,–
O=c1oc2ccccc2c2oc3c(Cl)cc(O)c(CN4CCCCC4)c3c12,2 µg/mL,–
O=C(c1cc2oc3c4ccccc4oc(=O)c3c2cc1O)N1CCCCC1,> 64 µg/mL,–
CCOc1ccc2oc3c4ccccc4oc(=O)c3c2c1CN1CCCCC1=O,> 64 µg/mL,–
O=c1oc2ccc(O)cc2c2oc3ccc(O)c(CN4CCCCC4)c3c12,0.5 µg/mL,–
CC[C@@H](CO)NCCN[C@@H](CC)CO,1 µg/mL,–
O=c1oc2ccccc2c2oc3ccc(O)c(CN4CCCC4)c3c12,0.5 µg/mL,–
CC1CCCCN1Cc1c(O)ccc2oc3c4ccccc4oc(=O)c3c12 (stereo unspecified),1 µg/mL,–
C[C@@H]1NC(=O)[C@@H](N)CNC(=O)[C@H](C2CCNC(=N)N2)NC(=O)/C(=C/NC(N)=O)NC(=O)[C@H](CNC(=O)CC(N)CCCN)NC1=O.N=C1NCCC([C@@H]2NC(=O)/C(=C/NC(N)=O)NC(=O)[C@H](CNC(=O)CC(N)CCCN)NC(=O)[C@H](CO)NC(=O)[C@@H](N)CNC2=O)N1 (stereo partly specified),1 µg/mL,–
CC(C)(C)c1cc(O)c(CN2CCCCC2)c2c1oc1c3cc(O)ccc3oc(=O)c12,0.125 µg/mL,–
O=C(NCC1CC1)c1c(O)ccc2oc3c4ccccc4oc(=O)c3c12,> 64 µg/mL,–
CC1COc2c(N3CCN(C)CC3)c(F)cc3c(=O)c(C(=O)O)cn1c23 (stereo unspecified),–,MIC=<90 [2]: 0.5 µg/mL; MIC=<90 [3]: 4 µg/mL; MIC=<90 [4]: 0.5 µg/mL; MIC=<90 [5]: 0.5 µg/mL; MIC=<90 [6]: 8 µg/mL
O=c1oc2ccccc2c2oc3cc([N+](=O)[O-])c(O)c(CN4CCCCC4)c3c12,> 64 µg/mL,–
COc1ccc2oc3c4ccccc4oc(=O)c3c2c1C(=O)N1CCCCC1,> 64 µg/mL,–
O=C1CCCCCN1Cc1c(O)ccc2oc3c4ccccc4oc(=O)c3c12,> 64 µg/mL,–
COc1ccc2oc3c4ccccc4oc(=O)c3c2c1CN1CCCCC1=O,> 64 µg/mL,–
CCOC(=O)c1c(-c2ccccc2)oc2ccc(O)c(CN3CCC(C)CC3)c12,1 µg/mL,–
CC(C)(C)c1cc(O)c(CN2CCCCC2)c2c1oc1c3ccc(O)cc3oc(=O)c12,0.0039 µg/mL,MIC=<90 [2]: 0.001 to 0.002 µg/mL; MIC=<90 [3]: 0.0039 µg/mL; MIC=<90 [4]: 0.0039 to 0.0078 µg/mL; MIC=<90 [5]: 0.0156 µg/mL; MIC=<90 [6]: 0.0039 µg/mL
CNC(=O)c1c(-c2ccc(O)cc2)oc2ccc(O)c(CN3CCCCC3)c12,0.0313 µg/mL,–
COc1cc2oc3c4ccccc4oc(=O)c3c2c(CN2CCCCC2)c1O,2 µg/mL,–
O=C(c1c(O)ccc2oc3c4ccccc4oc(=O)c3c12)N1CCCCC1,> 64 µg/mL,–
NC[C@H]1O[C@H](O[C@H]2[C@H](O)[C@@H](O[C@H]3O[C@H](CO)[C@@H](O)[C@H](N)[C@H]3O)[C@H](N)C[C@@H]2N)[C@H](O)[C@@H](O)[C@@H]1O,2 µg/mL,MIC=<90 [2]: 2 µg/mL; MIC=<90 [3]: > 128 µg/mL; MIC=<90 [4]: 2 µg/mL; MIC=<90 [5]: 2 µg/mL; MIC=<90 [6]: > 128 µg/mL

Structure (SMILES),MIC=<90 [1],other results
O=c1oc2ccccc2c2oc3ccc(O)cc3c12,> 64 µg/mL,–
COc1ccc2oc3c4ccccc4oc(=O)c3c2c1CN1CCCC1=O,> 64 µg/mL,–
O=c1oc2cc(O)c(O)cc2c2oc3cc(O)c(O)c(CN4CCCCC4)c3c12,32 µg/mL,–
O=c1oc2ccccc2c2oc3cc(CN4CCCCC4)c(O)cc3c12,> 64 µg/mL,–
COCCOc1ccc2oc3c4ccccc4oc(=O)c3c2c1CN1CCCC1=O,> 64 µg/mL,–
CC1CCCN(Cc2c(O)ccc3oc4c5ccccc5oc(=O)c4c23)C1 (stereo unspecified),2 µg/mL,–
CC(C)(C)c1cc(O)c(CN2CCCCC2)c2c1oc1c3ccccc3oc(=O)c12,0.0625 to 0.125 µg/mL,–
O=c1oc2ccccc2c2oc3c(Br)cc(O)c(CN4CCCCC4)c3c12,2 µg/mL,–
NNC(=O)c1ccncc1,0.04 µg/mL,MIC=<90 [2]: 16 µg/mL; MIC=<90 [3]: 8 µg/mL; MIC=<90 [4]: 0.04 µg/mL; MIC=<90 [5]: 16 µg/mL; MIC=<90 [6]: 8 µg/mL
CO[C@H]1/C=C/O[C@@]2(C)Oc3c(C)c(O)c4c(O)c(c(/C=N/N5CCN(C)CC5)c(O)c4c3C2=O)NC(=O)/C(C)=C\C=C\[C@H](C)[C@H](O)[C@@H](C)[C@@H](O)[C@@H](C)[C@H](OC(C)=O)[C@@H]1C,0.125 µg/mL,MIC=<90 [2]: 128 µg/mL; MIC=<90 [3]: > 128 µg/mL; MIC=<90 [4]: 0.0625 µg/mL; MIC=<90 [5]: 4 µg/mL; MIC=<90 [6]: > 128 µg/mL
NCC[C@H](O)C(=O)N[C@@H]1C[C@H](N)[C@@H](O[C@H]2O[C@H](CN)[C@@H](O)[C@H](O)[C@H]2O)[C@H](O)[C@H]1O[C@H]1O[C@H](CO)[C@@H](O)[C@H](N)[C@H]1O,1 µg/mL,–
Cc1cc(O)c(CN2CCCCC2)c2c1oc1c3ccccc3oc(=O)c12,0.125 µg/mL,–
O=c1oc2ccccc2c2oc3cc(O)c(O)c(CN4CCCCC4)c3c12,4 µg/mL,–
O=c1oc2ccccc2c2oc3cc(Br)c(O)c(CN4CCCCC4)c3c12,> 64 µg/mL,–
O=C1CCCCN1Cc1c(O)ccc2oc3c4ccccc4oc(=O)c3c12,> 64 µg/mL,–
C[C@H]1COc2c(N3CCN(C)CC3)c(F)cc3c(=O)c(C(=O)O)cn1c23,0.25 µg/mL,MIC=<90 [3]: 2 µg/mL; MIC=<90 [4]: 0.125 µg/mL; MIC=<90 [6]: 1 µg/mL
O=C1CCCN1Cc1c(O)ccc2oc3c4ccccc4oc(=O)c3c12,> 64 µg/mL,–
CC1CCN(Cc2c(O)ccc3oc4c5ccccc5oc(=O)c4c23)CC1,0.5 µg/mL,–
COCCOc1ccc2oc3c4ccccc4oc(=O)c3c2c1CN1CCCCC1=O,> 64 µg/mL,–
O=c1oc2cc(O)ccc2c2oc3cc(O)c(O)c(CN4CCCCC4)c3c12,2 µg/mL,–
COc1c(N2C[C@@H]3CCCN[C@@H]3C2)c(F)cc2c(=O)c(C(=O)O)cn(C3CC3)c12,0.0625 to 0.125 µg/mL,–
O=c1oc2cc(O)ccc2c2oc3ccc(O)c(CN4CCCCC4)c3c12,0.0039 µg/mL,MIC=<90 [2]: 0.0039 µg/mL; MIC=<90 [3]: 0.0078 µg/mL; MIC=<90 [4]: 0.0078 µg/mL; MIC=<90 [5]: 0.0156 µg/mL; MIC=<90 [6]: 0.0078 µg/mL
